The supplement of paper PMC10331698
± gives the standard deviation of the averaged measurements.

Experiments:
Assay in all cases: level (log10 ratio to DMSO vehicle control); higher = higher biomarker level / cell amount than vehicle control
Conditions in all cases: in DMSO
Perfluorobutanoic acid = compound: O=C(O)C(F)(F)C(F)(F)C(F)(F)F [Perfluorobutanoic acid]
Protocol: (§1)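 BioMAP Diversity Plus panel of 12 human primary cell co-culture systems (3C, 4H, LPS, SAg, BT, BF4T, BE3C, CASM3C, HDF3CGF, KF3CT, MyoF, Mphg). Compounds were added 1 h before stimulation and left for 24 h (MyoF 48 h; BT 72 h for soluble read-outs or 6 d for IgG). Biomarkers were read by ELISA, cytotoxicity by SRB, PBMC viability and proliferation by Alamar Blue. Each well value was divided by the mean of 8 DMSO control wells on the same plate and log10 transformed; duplicate blinded samples were tested at 4 concentrations.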

[1] = compound: O=C(O)C(F)(F)OC(F)(F)C(F)(F)OC(F)(F)C(=O)O [Perfluoro-3,6-dioxaoctane-1,8-dioic acid]
Protocol: as §1

[2] = compound: OCC(F)(F)OC(F)(F)C(F)(F)OC(F)(F)CO [1H,1H,8H,8H-Perfluoro-3,6-dioxaoctane-1,8-diol]
Protocol: as §1

Perfluoropropanoic acid = compound: O=C(O)C(F)(F)C(F)(F)F [Perfluoropropanoic acid]
Protocol: as §1

Perfluoro-1-iodohexane = compound: FC(F)(F)C(F)(F)C(F)(F)C(F)(F)C(F)(F)C(F)(F)I [Perfluoro-1-iodohexane]
Protocol: as §1

[3] = compound: O=C(O)C(F)(F)C(F)(F)OC(F)(F)F [Perfluoro-3-methoxypropanoic acid]
Protocol: as §1

[4] = compound: OCCC(F)(F)C(F)(F)C(F)(F)C(F)(F)C(F)(F)C(F)(F)F [6:2 Fluorotelomer alcohol]
Protocol: as §1

Test System	level (log10) (Perfluorobutanoic acid; 6700 nM)	level (log10) (Perfluorobutanoic acid; 20000 nM)	level (log10) (Perfluorobutanoic acid; 60000 nM)	level (log10) ([1]; 6700 nM)	level (log10) ([1]; 20000 nM)	level (log10) ([1]; 60000 nM)	level (log10) ([2]; 6700 nM)	level (log10) ([2]; 20000 nM)	level (log10) ([2]; 60000 nM)	level (log10) (Perfluoropropanoic acid; 6700 nM)	level (log10) (Perfluoropropanoic acid; 20000 nM)	level (log10) (Perfluoropropanoic acid; 60000 nM)	level (log10) (Perfluoro-1-iodohexane; 6700 nM)	level (log10) (Perfluoro-1-iodohexane; 20000 nM)	level (log10) (Perfluoro-1-iodohexane; 60000 nM)	level (log10) ([3]; 6700 nM)	level (log10) ([3]; 20000 nM)	level (log10) ([3]; 60000 nM)	level (log10) ([4]; 6700 nM)	level (log10) ([4]; 20000 nM)
HDF3CGF:TIMP-1	-0.0165 ± 0.00071	-0.0085 ± 0.033	0.0085 ± 0.013	-0.037 ± 0.0099	-0.009 ± 0.0028	0.041 ± 0.051	-0.007 ± 0.025	-0.0015 ± 0.016	0.0065 ± 0.023	-0.0195 ± 0.016	-0.0045 ± 0.0064	0.038 ± 0.025	-0.014 ± 0.021	-0.017 ± 0.025	-0.0385 ± 0.016	-0.0285 ± 0.026	0.0185 ± 0.005	0.036 ± 0.071	0.0005 ± 0.018	0.0095 ± 0.028
HDF3CGF:CD54/ICAM-1	-0.005 ± 0.016	0.0035 ± 0.00071	0.001 ± 0.0057	-0.0095 ± 0.0092	0.0015 ± 0.00071	-0.0085 ± 0.0035	0.005 ± 0.0028	-0.0165 ± 0.005	-0.01 ± 0.014	0.007 ± 0.016	0.0065 ± 0.005	-0.0045 ± 0.00071	-0.014 ± 0.0099	-0.0225 ± 0.013	-0.0255 ± 0.0078	-0.017 ± 0.0028	-0.0025 ± 0.005	-0.0055 ± 0.00071	-0.01 ± 0.0071	-0.0075 ± 0.0064
KF3CT:CCL2/MCP-1	-0.028 ± 0.0099	-0.0325 ± 0.0035	0.0205 ± 0.023	-0.0135 ± 0.016	-0.011 ± 0.0057	-0.0045 ± 0.013	-0.0075 ± 0.026	-0.022 ± 0.011	0.0235 ± 0.061	-0.0395 ± 0.0078	-0.018 ± 0.028	0.0055 ± 0.06	0.0225 ± 0.032	-0.015 ± 0.0014	-0.0185 ± 0.047	0.0035 ± 0.011	-0.0165 ± 0.0092	-0.011 ± 0.013	-0.015 ± 0.038	-0.016 ± 0.041
